Reference: patent US4816487A, “1-(2-hydroxyaryl)-alkane-1-on-oximes-procedure of preparation and use in pharmaceuticals” (Humboldt-Universitaet zu Berlin, priority 1985, dated 1989)

Key:
[1] = tested on: sensitised guinea pig; experiment: allergen (ovalbumin)-induced bronchoconstriction in vivo of sensitised guinea pig (allergic asthma of guinea pig); details: for tolerance of additional/successive ovalbumin injections: pretreated animals, two additional (three successive) injections of 40 μg ovalbumin
Description: These pharmacological properties were largely verified by measuring methods which were, basically, known from the literature. They were, however, applied in a modified form. […] 63, 1 (1979); M. W. Schneider and J. M. Drazen, Amer. Rev. Resp. Dis. 121, 835 (1980); S. S. Yen and W. Kreutner, Agents Actions 10, 174 (1980); S. S. Yen, Prostaglandins 22, 183 (1981); Adcock, J. J.; Garland, L. G.; Brit. J. Pharmacol. 69, 167 (1980); W. Diamantis, J. L. Melton; D. Sofia et al., Europ. J. Pharmacol. 56, 407 (1979); P. Anderson, Brit. J. Pharmacol. 77, 301 (1982)].
It was, remarkably, observed that all control animals died of apnoea after one single intraperitoneal application of ovalbumin (40 μg/kg body weight), following protracted and extremely severe asthmatic reaction (anaphylactic shock?).
Action on allergen-induced bronchoconstriction in vivo of sensitised guinea pig ("allergic asthma of guinea pig"):
This test was applied to male guinea pigs, 30 to 35 days from sensitisation, using 330 mg of aluminium hydroxide and 33 μg of ovalbuminper one kilogram of body weight (fresh preparation in physiological sodium chloride solution).
(Method was modified according to P. Anderson, Brit. J. Pharmacol. 77, 301 (1982).) The animals were anaesthetised by intraperitoneal application of 1.3 g/kg body weight of urethane, while 2 mg/kg body weight of Pavulon® were intravenously injected for muscular relaxation. Intravenous injection of 40 μg of ovalbumin triggered off the allergen-induced bronchoconstriction which developed to the full scale of anaphylactic shock in all control animals, within few seconds. The animals, tracheostomised and with venous catheters, were artificially ventilated at rhythmic negative pressure in a tank respirator (f=16 min^-1; inspiration:expiration=1:1). Gas flow(V), breathing volume (VT), and ECG were checked in the course of pneumotachography. The animals had been pretreated by two intraperitoneal injections of finely crushed 5-methyl-2-hydroxylaurophenone-oxime, suspended in agar-agar. […]

[2] = biological target: T1, lipoxygenase-1 from soybean (Glycine max, UniProt P08170); experiment: inhibition of soybean lipoxygenase-1; format: biochemical; details: ultimate concentration 1.0 mM; read-out: Inhibition (percent) of lipoxygenase from soybean
T1 construct: purchased
T1 sequence (P08170 1-839): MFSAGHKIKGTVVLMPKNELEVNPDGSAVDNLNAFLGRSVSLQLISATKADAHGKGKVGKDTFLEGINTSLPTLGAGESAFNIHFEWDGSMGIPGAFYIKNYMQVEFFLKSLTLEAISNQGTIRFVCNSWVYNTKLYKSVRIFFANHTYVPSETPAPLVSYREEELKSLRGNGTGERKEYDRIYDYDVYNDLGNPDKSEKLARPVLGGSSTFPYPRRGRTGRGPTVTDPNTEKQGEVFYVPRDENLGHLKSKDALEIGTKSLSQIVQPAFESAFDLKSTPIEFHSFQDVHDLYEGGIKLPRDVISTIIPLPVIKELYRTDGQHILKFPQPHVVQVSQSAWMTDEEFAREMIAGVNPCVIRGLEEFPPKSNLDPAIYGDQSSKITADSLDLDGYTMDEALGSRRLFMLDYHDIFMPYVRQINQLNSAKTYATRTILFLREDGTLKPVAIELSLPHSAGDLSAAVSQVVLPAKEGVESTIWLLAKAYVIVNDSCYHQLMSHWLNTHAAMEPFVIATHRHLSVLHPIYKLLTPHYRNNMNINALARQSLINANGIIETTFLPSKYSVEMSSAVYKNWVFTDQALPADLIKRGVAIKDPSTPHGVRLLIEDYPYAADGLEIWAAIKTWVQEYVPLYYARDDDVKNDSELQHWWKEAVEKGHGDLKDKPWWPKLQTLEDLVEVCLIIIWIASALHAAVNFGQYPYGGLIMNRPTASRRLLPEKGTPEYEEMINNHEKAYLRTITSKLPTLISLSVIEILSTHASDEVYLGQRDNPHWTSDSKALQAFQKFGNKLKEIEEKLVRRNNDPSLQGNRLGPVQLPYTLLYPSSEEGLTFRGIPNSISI
Description: Persuasive evidence to inhibition of lipoxygenase was produced by a suitable animal lipoxygenase which had been isolated from rabbit reticulocytes, using a method by Rapoport and coworkers /S. M. Rapoport et al., Eur. J. Biochem. 96, 545 (1979)/. A final concentration of 1 mM of most of the compounds, according to this invention, produced inhibition of 90 percent or more (cf. Example 20). Significant inhibition was even recordable from a final concentration of 0.1 mM of some of the compounds, according to this invention. Substance concentrations were varied to determine the titration curves of inhibition and from these the half-inhibition concentrations (I50 -values). A half-inhibition concentration of 7 μM was established for 5-methyl-2-hydroxy-laurophenone-oxime, an oxime of high anti-asthmatic effectiveness.
Lipoxygenase from rabbit reticulocytes was obtained in electrophoretically and immunologically pure form by means of the method described in the literature /S. M. Rapoport et al., Eur. J. Biochem. 96, 545 (1979)/. Lipoxygenase activity was determined at 25° C. by amperometric measurement of oxygen consumption by means of a Clark electrode in the following system: 0.1M potassium phosphate, pH 7.4, with 0.2-per-cent sodium cholate and 0.53 mM linoleic acid. The enzyme concentration was […] in the sample for measurement. The substances submitted for testing were dissolved in methyl glycol (fresh distillation in vacuum) and pre-incubated ten minutes with the enzyme at measurement temperature and in the absence of sodium cholate and linoleic acid. […] No remarkable inhibition occurred to control samples under these conditions. Enzyme reaction was started by addition of sodium cholate and linoleic acid. The titration curve of inhibition and, consequently, the concentrations required for inhibition by the order of 50 per cent were determined by variation of active substance concentrations. For comparison, the compounds were tested also on commercial lipoxygenase-1 from soybean.

CCCCCCCCCCCC(=NO)c1cc(C)ccc1O [5-methyl-2-hydroxy-laurophenone-oxime]
inhibition of ovalbumin-induced asthma reaction ([1]; 2 x 10 mg/kg i.p., 90 and 60 minutes prior, 40 μg ovalbumin i.v., all probands): Complete inhibition
tolerance of additional/successive ovalbumin injections [1]: tolerated without reaction
tolerance of additional/successive ovalbumin injections ([1]; listed as 5-methyl-2-hydroxyl-laurophenone-oxime): tolerated without any sign of bronchoconstriction
inhibition at 1000 µM [2]: 67%
